Source: patent publication US20250265708A1, “METHOD AND SYSTEM FOR CONTRACTILITY ASSESSMENT OF CARDIAC ORGANOIDS BASED ON PARTICLE IMAGE VELOCIMETRY, PROGRAM FOR THE SAME, AND RECORDING MEDIUM STORING PROGRAM THEREOF” (Research & Business Foundation SUNGKYUNKWAN UNIVERSITY, priority 2024, published 2025)

Tested on: cardiac organoid
Assay: Drug reaction experiment: PIV-based contractility analysis of cardiac organoid treated with isoprenaline
Assay type: cell-based, human
Excerpt: Specifically, isoprenaline, which is a widely used […] (inotropic agent), is used to assess contractility of a cardiac organoid in response to drugs. […] As a result, the contraction-relaxation velocity profile and beating image of the cardiac organoids before drug treatment may be confirmed as shown in FIG. 10A and FIG. 10B, after drug treatment as shown in FIG. 10C and FIG. 10D, and 1 day after drug withdrawal as shown in FIG. 10E and FIG. 10F.

[1] = cardiac organoid, after treating for 15 minutes with isoprenaline, vs before drug treatment

In the case of `CC(C)NCC(O)c1ccc(O)c(O)c1` (stereo not shown) [isoprenaline], the “heart beating of the organoid” value (1 day after drug withdrawal) is reported as “returned to before the drug treatment”, the average contraction duration [1] is reported as “reduced” and the “contraction time to peak” value [1] is reported as “reduced”. The heart beating rate (cardiac organoid, after treating for 15 minutes with isoprenaline, vs before drug treatment (24.3±3.22 BPM)) was “increased significantly”.
